According to the CheMixHub viscosity set:

Assay: xn = mol fraction of the nth substance listed

CCOCCO + O
viscosity [mPa·s]
Settings | 101 kPa | 101.33 kPa
293.15 K, x1 = 0.02202 | 1.422 | –
293.15 K, x1 = 0.04761 | 2.02 | –
293.15 K, x1 = 0.07883 | 2.731 | –
293.15 K, x1 = 0.1177 | 3.402 | –
293.15 K, x1 = 0.1666 | 3.943 | –
293.15 K, x1 = 0.2304 | 4.205 | –
293.15 K, x1 = 0.318 | 4.219 | –
293.15 K, x1 = 0.4441 | 3.838 | –
293.15 K, x1 = 0.5303 | 3.471 | –
293.15 K, x1 = 0.6418 | 3.081 | –
293.15 K, x1 = 0.7202 | 2.836 | –
293.15 K, x1 = 0.8271 | 2.502 | –
293.15 K, x1 = 0.9078 | 2.27 | –
298.15 K, x1 = 0.0104 | – | 1.04
298.15 K, x1 = 0.0217 | – | 1.25
298.15 K, x1 = 0.0341 | – | 1.44
298.15 K, x1 = 0.0476 | – | 1.7
298.15 K, x1 = 0.0625 | – | 1.97
298.15 K, x1 = 0.0789 | – | 2.26
298.15 K, x1 = 0.0972 | – | 2.54
298.15 K, x1 = 0.1176 | – | 2.8
298.15 K, x1 = 0.1406 | – | 3.05
298.15 K, x1 = 0.1666 | – | 3.24
298.15 K, x1 = 0.1964 | – | 3.38
298.15 K, x1 = 0.2307 | – | 3.48
298.15 K, x1 = 0.2707 | – | 3.47
298.15 K, x1 = 0.3181 | – | 3.45
298.15 K, x1 = 0.3749 | – | 3.33
298.15 K, x1 = 0.4443 | – | 3.14
298.15 K, x1 = 0.5311 | – | 2.89
298.15 K, x1 = 0.6428 | – | 2.58
298.15 K, x1 = 0.7916 | – | 2.19
298.15 K, x2 = 0.11 | – | 1.991
298.15 K, x2 = 0.2089 | – | 2.215
298.15 K, x2 = 0.294 | – | 2.441
298.15 K, x2 = 0.4058 | – | 2.765
298.15 K, x2 = 0.5043 | – | 3.031
298.15 K, x2 = 0.5995 | – | 3.311
298.15 K, x2 = 0.7033 | – | 3.504
298.15 K, x2 = 0.8037 | – | 3.376
298.15 K, x2 = 0.902 | – | 2.55
303.15 K, x1 = 0.0104 | – | 0.92
303.15 K, x1 = 0.0217 | – | 1.11
303.15 K, x1 = 0.02202 | 1.097 | –
303.15 K, x1 = 0.0341 | – | 1.27
303.15 K, x1 = 0.0476 | – | 1.5
303.15 K, x1 = 0.04761 | 1.485 | –
303.15 K, x1 = 0.0625 | – | 1.72
303.15 K, x1 = 0.07883 | 1.928 | –
303.15 K, x1 = 0.0789 | – | 1.96
303.15 K, x1 = 0.0972 | – | 2.18
303.15 K, x1 = 0.1176 | – | 2.4
303.15 K, x1 = 0.1177 | 2.355 | –
303.15 K, x1 = 0.1406 | – | 2.61
303.15 K, x1 = 0.1666 | 2.703 | 2.78
303.15 K, x1 = 0.1964 | – | 2.9
303.15 K, x1 = 0.2304 | 2.92 | –
303.15 K, x1 = 0.2307 | – | 3
303.15 K, x1 = 0.2707 | – | 3.03
303.15 K, x1 = 0.318 | 2.951 | –
303.15 K, x1 = 0.3181 | – | 3.02
303.15 K, x1 = 0.3749 | – | 2.93
303.15 K, x1 = 0.4443 | – | 2.77
303.15 K, x1 = 0.5303 | 2.547 | –
303.15 K, x1 = 0.5311 | – | 2.56
303.15 K, x1 = 0.6418 | 2.28 | –
303.15 K, x1 = 0.6428 | – | 2.31
303.15 K, x1 = 0.7202 | 2.126 | –
303.15 K, x1 = 0.7916 | – | 1.97
303.15 K, x1 = 0.8271 | 1.912 | –
303.15 K, x1 = 0.9078 | 1.764 | –
308.15 K, x1 = 0.1406 | – | 2.24
308.15 K, x1 = 0.1666 | – | 2.38
308.15 K, x1 = 0.1964 | – | 2.49
308.15 K, x1 = 0.2307 | – | 2.58
308.15 K, x1 = 0.2707 | – | 2.62
308.15 K, x1 = 0.3181 | – | 2.61
308.15 K, x1 = 0.3749 | – | 2.55
308.15 K, x1 = 0.4443 | – | 2.43
308.15 K, x1 = 0.5311 | – | 2.26
308.15 K, x1 = 0.6428 | – | 2.04
308.15 K, x1 = 0.7916 | – | 1.76
308.15 K, x2 = 0.1041 | – | 1.418
308.15 K, x2 = 0.1944 | – | 1.621
308.15 K, x2 = 0.2933 | – | 1.785
308.15 K, x2 = 0.4988 | – | 2.148
308.15 K, x2 = 0.5964 | – | 2.307
308.15 K, x2 = 0.699 | – | 2.385
308.15 K, x2 = 0.7918 | – | 2.32
308.15 K, x2 = 0.8469 | – | 2.111
308.15 K, x2 = 0.8976 | – | 1.787
308.15 K, x2 = 0.9491 | – | 1.279
313.15 K, x1 = 0.02202 | 0.8665 | –
313.15 K, x1 = 0.04761 | 1.14 | –
313.15 K, x1 = 0.07883 | 1.456 | –
313.15 K, x1 = 0.1177 | 1.727 | –
313.15 K, x1 = 0.1666 | 1.967 | –
313.15 K, x1 = 0.2304 | 2.124 | –
313.15 K, x1 = 0.318 | 2.14 | –
313.15 K, x1 = 0.4441 | 2.011 | –
313.15 K, x1 = 0.5303 | 1.9 | –
313.15 K, x1 = 0.6418 | 1.731 | –
313.15 K, x1 = 0.7202 | 1.614 | –
313.15 K, x1 = 0.8271 | 1.491 | –
313.15 K, x1 = 0.9078 | 1.399 | –
323.15 K, x1 = 0.02202 | 0.6974 | –
323.15 K, x1 = 0.04761 | 0.8748 | –
323.15 K, x1 = 0.07883 | 1.105 | –
323.15 K, x1 = 0.1177 | 1.32 | –
323.15 K, x1 = 0.1666 | 1.479 | –
323.15 K, x1 = 0.2304 | 1.613 | –
323.15 K, x1 = 0.318 | 1.656 | –
323.15 K, x1 = 0.4441 | 1.591 | –
323.15 K, x1 = 0.5303 | 1.514 | –
323.15 K, x1 = 0.6418 | 1.398 | –
323.15 K, x1 = 0.7202 | 1.324 | –
323.15 K, x1 = 0.8271 | 1.212 | –
323.15 K, x1 = 0.9078 | 1.133 | –
